In publication PMC2994747, “Molecular Characterization of c-Abl/c-Src Kinase Inhibitors Targeted against Murine Tumour Progenitor Cells that Express Stem Cell Markers” (PLoS ONE, 2010):
Read-outs that look alike come from different tables or passages of the source.

Tests used:
[1] = tested on: CaCo2; experiment: MTS cell viability assay; assay type: cell-based, human
How it was run: (§1)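 Viability was measured as MTS absorbance at 490 nm following 1 h with the tetrazolium reagent. Treatment with the dual kinase inhibitors, or 0.2% DMSO as vehicle, lasted 24 h or 96 h in monolayer cultures kept in DMEM plus 10% foetal calf serum.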

[2] = tested on: HepG2; experiment: MTS cell viability assay; assay type: cell-based, human
How it was run: as §1

[3] = tested on: A549; experiment: MTS cell viability assay; assay type: cell-based, human
How it was run: as §1

[4] = tested on: human and murine cell lines; experiment: Western blot, statements over human and murine cell lines; assay type: cell-based; conditions: IC50 concentration, 96 h
Description: (§2) For the Western Blot analysis, cells were rinsed and lysed as previously described. An amount of 25 µg protein was used for SDS-PAGE. Antibodies for c-Abl (sc-131), Actin (sc-1616), Cdc2-p34 (sc-8395), EPS15 (sc-1840), FAK (sc-558), c-Fos (sc-52), p38 (sc-7972), p53 (sc-6243) and STAT5 (sc-835x) were obtained from Santa Cruz (Santa Cruz Biotechnology, Heidelberg, Germany), while c-Src (2109) and phospho-Src Y416 (2101) were purchased from Cell Signaling (Cell Signaling Technology, Frankfurt a. M., Germany). The EGFR (06-847), phospho-EGFR Y992 (07-821) and phospho-EGFR Y1045 (04-284) stem from Upstate (Upstate, Schwalbach, Germany) and the hnRNP-K (A300-676A) from Bethyl Labs (Bethyl Laboratories, Montgomery, Texas, USA). Finally p73 (IMG-246) was supplied by Imgenex (Imgenex, Hamburg, Germany). Depending on the primary antibody the secondary antibodies were either horseradish peroxidase-conjugated anti-mouse (AP 160P), anti-rabbit (AP 132P) or anti-sheep (AP 147P) (Chemicon, Schwalbach, Germany).
(§3) Semi-quantitative analysis were carried out with Kodak 1D Image Analysis Software in reference to the vehicle treated control cells (see supplementary table S7).

[5] = tested on: BetaD5; experiment: MTS cell viability assay; assay type: cell-based, mouse
How it was run: as §1

[6] = tested on: GammaD12; experiment: MTS cell viability assay; assay type: cell-based, mouse
How it was run: as §1

[7] = tested on: GammaA3; experiment: MTS cell viability assay; assay type: cell-based, mouse
How it was run: as §1

[8] = tested on: A2C12; experiment: MTS cell viability assay; assay type: cell-based, mouse
How it was run: as §1

[9] = tested on: CaCo2; experiment: Cell cycle analysis by flow cytometry; assay type: cell-based, human; conditions: IC50 concentration, 96 h
How it was run: (§4)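 Step one: detach cells with trypsin and rinse with PBS. Step two: pellet, then treat with solution A for 10 min at room temperature. Step three: add solutions B and C, with the final incubation cold (4°C) and dark, before cytometric acquisition.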

[10] = tested on: HepG2; experiment: Cell cycle analysis by flow cytometry; assay type: cell-based, human; conditions: IC50 concentration, 96 h
How it was run: as §4

[11] = tested on: A549; experiment: Cell cycle analysis by flow cytometry; assay type: cell-based, human; conditions: IC50 concentration, 96 h
How it was run: as §4

[12] = tested on: BetaD5; experiment: Cell cycle analysis by flow cytometry; assay type: cell-based, mouse; conditions: IC50 concentration, 96 h
How it was run: as §4

[13] = tested on: GammaD12; experiment: Cell cycle analysis by flow cytometry; assay type: cell-based, mouse; conditions: IC50 concentration, 96 h
How it was run: as §4

[14] = tested on: GammaA3; experiment: Cell cycle analysis by flow cytometry; assay type: cell-based, mouse; conditions: IC50 concentration, 96 h
How it was run: as §4

[15] = tested on: GammaD12; experiment: Western blot, semi-quantitative protein expression; assay type: cell-based, mouse
Description: as §2, §3

[16] = tested on: GammaA3; experiment: Western blot, semi-quantitative protein expression; assay type: cell-based, mouse
Description: as §2, §3

[17] = 24 h, read-out: Calculated IC50 after single treatment for 24 h
[18] = 96 h, read-out: Calculated IC50 after daily treatment for 96 h
[19] = MTS, 24 h, read-out: Calculated IC50 after single treatment for 24 h

CSc1nc(NCCc2ccc(Cl)cc2)c2cnn(CC(Cl)c3ccccc3)c2n1 (centres unmarked) [Si57]
IC50 [1, 17]: 77.1 ± 7.5 µM | IC50 [1, 18]: 6.8 ± 1.5 µM | IC50 [2, 17]: 77.2 ± 7.5 µM | IC50 [2, 18]: 25.5 ± 4.8 µM | IC50 [3, 17]: 43.4 ± 8 µM | IC50 [3, 18]: 8.3 ± 0.4 µM | hnRNP-K protein level [4]: remained equal | IC50 [5, 17]: 19.6 ± 1.5 µM | IC50 [5, 18]: 9.1 µM | IC50 [6, 19]: 14.6 ± 0.7 µM | IC50 ([6]; MTS, 96 h, read-out: Calculated IC50 after daily treatment for 96 h): 4.8 ± 0.6 µM | IC50 [7, 17]: 26.6 ± 4.2 µM | IC50 [7, 18]: 5.8 ± 0.4 µM | IC50 [8, 17]: 24.8 ± 0.2 µM | IC50 [8, 18]: 5.4 ± 0.3 µM | Cells in G1 phase [9]: 41.7% | Cells in G2 phase [9]: 18.1% | Cells in S phase [9]: 40.2% | Cells in G1 phase [10]: 63.9% | Cells in G2 phase [10]: 8.1% | Cells in S phase [10]: 28% | Cells in G1 phase [11]: 70.5% | Cells in G2 phase [11]: 5.5% | Cells in S phase [11]: 24% | Cells in G1 phase [12]: 52.5% | Cells in G2 phase [12]: 32.3% | Cells in S phase [12]: 15.4% | Cells in G1 phase [13]: 33% | Cells in G2 phase [13]: 6% | Cells in S phase [13]: 61.1% | Cells in G1 phase [14]: 59.6% | Cells in G2 phase [14]: 18% | Cells in S phase [14]: 22.4% | Actin protein expression [15]: 106 | EGFR Y992-p protein expression [15]: 62 | EGFR Y1045-p protein expression [15]: 96 | EGFR protein expression [15]: 89 | EPS15 protein expression [15]: 135 | FAK protein expression [15]: 106 | STAT5 protein expression [15]: 110 | c-Abl protein expression [15]: 212 | c-Fos protein expression [15]: 70 | c-Src Y416-p protein expression [15]: 90 | c-Src protein expression [15]: 103 | hnRNP-K protein expression [15]: 100 | p38 protein expression [15]: 29 | p53 protein expression [15]: 58 | Actin protein expression [16]: 105 | EGFR Y992-p protein expression [16]: 90 | EGFR Y1045-p protein expression [16]: 15 | EGFR protein expression [16]: 39 | EPS15 protein expression [16]: 102 | FAK protein expression [16]: 101 | STAT5 protein expression [16]: 93 | c-Abl protein expression [16]: 62 | c-Fos protein expression [16]: 79 | c-Src Y416-p protein expression [16]: 256 | c-Src protein expression [16]: 104 | hnRNP-K protein expression [16]: 93 | p38 protein expression [16]: 38 | p53 protein expression [16]: 54

Fc1ccccc1CNc1ncnc2c1cnn2CC(Cl)c1ccc(Br)cc1 (centres unmarked) [Si162]
IC50 [1, 17]: > 100 µM | IC50 [1, 18]: 1.9 ± 0.2 µM | IC50 [2, 17]: 34.7 ± 3.4 µM | IC50 [2, 18]: 14.5 µM | IC50 [3, 17]: 21.9 ± 2.7 µM | IC50 [3, 18]: 5 µM | Repression of FAK protein ([4]; lung cancer cell lines): up to 50% | IC50 [5, 17]: 8.3 ± 1.2 µM | IC50 [5, 18]: 6.4 ± 0.5 µM | IC50 ([6]; 96 h, read-out: IC50 (MTS) after treatment for 96 h): 0.8 µM | IC50 [6, 19]: 11.6 ± 1.3 µM | IC50 [7, 17]: 13.1 ± 1.1 µM | IC50 [7, 18]: 6.4 ± 0.4 µM | IC50 [8, 17]: 17.6 ± 1.2 µM | IC50 [8, 18]: 2.1 ± 0.2 µM | Cells in G1 phase [9]: 41.3% | Cells in G2 phase [9]: 12.3% | Cells in S phase [9]: 46.4% | Cells in G1 phase [10]: 17.8% | Cells in G2 phase [10]: 63% | Cells in S phase [10]: 19.3% | Cells in G1 phase [11]: 8.5% | Cells in G2 phase [11]: up to 72.3% | Cells in S phase [11]: 19.2% | Cells in G2 phase ([11]; listed as Si 162): 72.3% | Cells in G1 phase [12]: 22.8% | Cells in G2 phase [12]: 42.8% | Cells in S phase [12]: 34.5% | Cells in G1 phase [13]: 24.1% | Cells in G2 phase [13]: 12.4% | Cells in S phase [13]: 63.5% | Cells in G1 phase [14]: 40.3% | Cells in G2 phase [14]: 31.5% | Cells in S phase [14]: 28.1% | Actin protein expression [15]: 91 | EGFR Y992-p protein expression [15]: 237 | EGFR Y1045-p protein expression [15]: 309 | EGFR protein expression [15]: 65 | EPS15 protein expression [15]: 179 | FAK protein expression [15]: 108 | STAT5 protein expression [15]: 82 | c-Abl protein expression [15]: 195 | c-Fos protein expression [15]: 123 | c-Src Y416-p protein expression [15]: 105 | c-Src protein expression [15]: 56 | hnRNP-K protein expression [15]: 85 | p38 protein expression [15]: 43 | p53 protein expression [15]: 154 | Actin protein expression [16]: 83 | EGFR Y992-p protein expression [16]: 77 | EGFR Y1045-p protein expression [16]: 69 | EGFR protein expression [16]: 1 | EPS15 protein expression [16]: 90 | FAK protein expression [16]: 111 | STAT5 protein expression [16]: 46 | c-Abl protein expression [16]: 1.79 | c-Src Y416-p protein expression [16]: 205 | c-Src protein expression [16]: 21 | hnRNP-K protein expression [16]: 5 | p38 protein expression [16]: 64 | p53 protein expression [16]: 323
